Experimental data as given in ChEMBL document CHEMBL5385872, “Design and syntheses of a bimolecular STING agonist based on the covalent STING antagonist” (Eur J Med Chem, 2023).
Calls of active or inactive are those of the source. The calls are words filed in the database; no cut-off is given here.

How the values were obtained:
Mus musculus [1] = test: Induction of immune-activation effect in wild type female BALB/c mouse assessed as increase in serum TNFalpha level at 15 to 30 mg/kg, ip measured after 24 to 48 hrs by ELISA relative to control; type: functional, organism-based; details: dose 15-30 mg/kg, time 24-48 hrs
[2] = target: Stimulator of interferon genes protein (Homo sapiens) (UniProt Q86WV6); test: Induction of STING-dependent gene expression in human HT-1080 cells assessed as IFNalpha mRNA expression at 20 uM incubated for 8 hrs by qRT-PCR analysis; type: cell-based; details: filed as agonist
Stimulator of interferon genes protein (Homo sapiens), sequence (Q86WV6 whole entry): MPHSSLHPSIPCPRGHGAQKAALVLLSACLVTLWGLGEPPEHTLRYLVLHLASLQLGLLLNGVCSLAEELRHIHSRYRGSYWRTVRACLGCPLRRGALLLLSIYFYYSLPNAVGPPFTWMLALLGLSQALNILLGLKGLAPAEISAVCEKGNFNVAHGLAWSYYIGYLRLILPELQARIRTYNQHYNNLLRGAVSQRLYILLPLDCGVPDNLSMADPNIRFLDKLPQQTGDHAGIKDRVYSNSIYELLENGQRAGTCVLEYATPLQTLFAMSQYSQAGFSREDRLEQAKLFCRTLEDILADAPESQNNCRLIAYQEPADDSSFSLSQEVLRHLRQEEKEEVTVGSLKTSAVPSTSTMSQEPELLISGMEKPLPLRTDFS

[3] = target: T1, Stimulator of interferon genes protein (Mus musculus) (UniProt Q3TBT3); test: Agonist activity at STING in mouse BMDM cells assessed as change in TBK1 phosphorylation (initially increase and then decreased) at 20 uM measured after 5 hrs by Western blot analysis; type: cell-based; details: filed as agonist
T1 sequence (whole entry): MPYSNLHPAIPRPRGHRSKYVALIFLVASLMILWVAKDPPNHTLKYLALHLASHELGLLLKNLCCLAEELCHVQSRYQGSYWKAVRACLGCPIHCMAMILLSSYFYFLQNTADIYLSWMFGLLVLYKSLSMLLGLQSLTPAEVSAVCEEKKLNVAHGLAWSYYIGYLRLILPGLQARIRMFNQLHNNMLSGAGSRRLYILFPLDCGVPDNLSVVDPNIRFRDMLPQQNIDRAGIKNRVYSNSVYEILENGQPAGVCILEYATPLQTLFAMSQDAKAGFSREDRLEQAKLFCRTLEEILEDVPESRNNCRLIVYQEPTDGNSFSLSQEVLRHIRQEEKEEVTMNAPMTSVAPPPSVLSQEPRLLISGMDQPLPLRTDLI

[4] = target: Stimulator of interferon genes protein (Homo sapiens) (UniProt Q86WV6); test: Induction of oligomerization of STING in HEK-293T cells stably expressing STING-Flag ( unknown origin) measured after 4 hrs by immunoprecipitation assay; type: cell-based; details: filed as agonist
[5] = target: T1, Stimulator of interferon genes protein (Mus musculus); test: Induction of STING-dependent gene expression in mouse BMDC cells assessed as IFNalpha mRNA expression at 20 uM incubated for 8 hrs by qRT-PCR analysis; type: cell-based; details: filed as agonist
[6] = target: Stimulator of interferon genes protein (Homo sapiens) (UniProt Q86WV6); test: Induction of STING-dependent gene expression in human HT-1080 cells assessed as IFNbeta mRNA expression at 20 uM incubated for 8 hrs by qRT-PCR analysis; type: cell-based; details: filed as agonist
[7] = target: T1, Stimulator of interferon genes protein (Mus musculus); test: Induction of STING-dependent gene expression in mouse BMDC cells assessed as IFNbeta mRNA expression at 20 uM incubated for 8 hrs by qRT-PCR analysis; type: cell-based; details: filed as agonist
[8] = target: T1, Stimulator of interferon genes protein (Mus musculus); test: Agonist activity at STING in mouse BMDC cells assessed as change in TBK1 phosphorylation (initially increase and then decreased) at 20 uM measured after 5 hrs by Western blot analysis; type: cell-based; details: filed as agonist
[9] = target: T1, Stimulator of interferon genes protein (Mus musculus); test: Induction of STING dimerization in mouse BMDM cells assessed as dimerization (initially increase and then decreased) at 2.5 to 20 uM measured after 5 hrs by Western blot analysis; type: cell-based; details: filed as agonist, dose 2.5-20 µM
Mus musculus [10] = test: Induction of immune-activation effect in wild type female BALB/c mouse assessed as increase in serum IFNbeta level at 15 to 30 mg/kg, ip measured after 24 to 48 hrs by ELISA relative to control; type: functional, organism-based; details: dose 15-30 mg/kg, time 24-48 hrs
[11] = target: T1, Stimulator of interferon genes protein (Mus musculus); test: Induction of STING dimerization in mouse BMDC cells assessed as dimerization (initially increase and then decreased) at 2.5 to 20 uM measured after 5 hrs by Western blot analysis; type: cell-based; details: filed as agonist, dose 2.5-20 µM
HT-1080 [12] = test: Induction of TBK1 phosphorylation in STING - knockout human HT1080 cells at 20 uM measured after 5 hrs by Western blot analysis; type: functional, cell-based
HT-1080 [13] = test: Induction of TBK1 phosphorylation in human HT1080 cells at 20 uM measured after 5 hrs by Western blot analysis; type: functional, cell-based

Row | Activity [2] | Activity [3] | Activity [4] | Activity [5] | Activity [6] | Activity [7] | Activity [8] | Activity [9] | Activity [11] | SMILES | Activity (Mus musculus [1]) | Activity (Mus musculus [10]) | Activity (HT-1080 [12]) | Activity (HT-1080 [13])
1 | Active | Active | Active | Active | Active | Active | Active | Active | Active | O=C(NCCCCCCCNC(=O)c1ccc([N+](=O)[O-])o1)c1ccc([N+](=O)[O-])o1 | Active | Active | – | –
2 | – | – | – | – | – | – | – | – | – | O=C(NCCNCCNC(=O)c1ccc([N+](=O)[O-])s1)c1ccc([N+](=O)[O-])s1 | – | – | Active | Active
